Laboratory results published in patent US6358983B1, “Heterocyclically substituted α-hydroxycarboxylic acid derivatives, method for producing the same and their use as endothelin receptor antagonists” (Abbott Laboratories, priority 1997, dated 2002).

Key:
human ETB receptor = molecular target: T1, human ETB receptor (Homo sapiens, UniProt P24530); assay: ETB receptor binding test ([125I]-ET3, CHO cell membranes); settings: cloned human ETB receptor, 25 pM [125I]-ET3, 25° C., 30 min
T1 construct: expressed in transfected cells; host or cells: CHO cells (membrane preparation)
T1 sequence (P24530 27-442): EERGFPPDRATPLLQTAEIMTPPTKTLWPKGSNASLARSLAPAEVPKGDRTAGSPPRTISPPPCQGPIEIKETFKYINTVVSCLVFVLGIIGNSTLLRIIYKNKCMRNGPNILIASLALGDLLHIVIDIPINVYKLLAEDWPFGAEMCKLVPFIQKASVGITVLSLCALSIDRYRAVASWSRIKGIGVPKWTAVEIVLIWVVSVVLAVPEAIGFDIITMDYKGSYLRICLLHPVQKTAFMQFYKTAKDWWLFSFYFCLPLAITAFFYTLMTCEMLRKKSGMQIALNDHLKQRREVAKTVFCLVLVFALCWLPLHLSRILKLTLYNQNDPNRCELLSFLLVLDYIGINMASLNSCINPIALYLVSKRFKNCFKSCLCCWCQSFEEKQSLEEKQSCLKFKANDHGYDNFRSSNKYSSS
Protocol: (§1) For binding studies, cloned human ETA or ETB receptor-expressing CHO cells were employed.
(§2) The ETA or ETB receptor-expressing CHO cells were proliferated in DMEM NUT MIX F12 medium (Gibco, No. 21331-020) using 10% fetal calf serum (PAA Laboratories GmbH, Linz, No. A15-022), 1 mM glutamine (Gibco No. 25030-024), 100 U/ml of penicillin and 100 μg/ml of streptomycin (Gibco, Sigma No P-0781). After 48 hours, the cells were washed with PBS and incubated at 37° C. for 5 minutes with 0.05% trypsin-containing PBS. Neutralization with medium was then carried out and the cells were collected by centrifugation at 300×g.
(§3) For the membrane preparation, the cells were adjusted to a concentration of 10^8 cells/ml of buffer (50 mM tris·HCL buffer, pH 7.4) and then disintegrated by means of ultrasound Branson Sonifier 250, 40-70 seconds/constant/output [sic] 20).
(§4) For the ETA and ETB receptor binding test, the membranes were suspended in incubation buffer (50 mM tris HCl, pH 7.4 with 5 mM MnCl2, […] of bacitracin and 0.2% BSA) in a concentration of 50 μg of protein per test batch and incubated at 25° C. with 25 pM [125I]-ET1 (ETA receptor test) or 25 pM [125I]-ET3 (ETB receptor test) in the presence or absence of test substance. The nonspecific binding was determined with 10^−7 M ET1. After 30 min, the free and the bound -radioligand were separated by filtration through GF/B glass fiber filters (Whatman, England) on a Skatron cell collector (Skatron, Lier, Norway) and the filters were washed with ice-cold tris HCl buffer, pH 7.4 with 0.2% BSA.
(§5) The radioactivity collected on the filters was quantified using a Packard 2200 CA liquid scintillation counter.
(§6) According to the binding test described above, receptor binding data were measured for the compounds shown below.

human ETA receptor = molecular target: T2, human ETA receptor (Homo sapiens, UniProt P25101); assay: ETA receptor binding test ([125I]-ET1, CHO cell membranes); settings: cloned human ETA receptor, 25 pM [125I]-ET1, 25° C., 30 min
T2 construct: expressed in transfected cells; host or cells: CHO cells (membrane preparation)
T2 sequence (P25101 21-427): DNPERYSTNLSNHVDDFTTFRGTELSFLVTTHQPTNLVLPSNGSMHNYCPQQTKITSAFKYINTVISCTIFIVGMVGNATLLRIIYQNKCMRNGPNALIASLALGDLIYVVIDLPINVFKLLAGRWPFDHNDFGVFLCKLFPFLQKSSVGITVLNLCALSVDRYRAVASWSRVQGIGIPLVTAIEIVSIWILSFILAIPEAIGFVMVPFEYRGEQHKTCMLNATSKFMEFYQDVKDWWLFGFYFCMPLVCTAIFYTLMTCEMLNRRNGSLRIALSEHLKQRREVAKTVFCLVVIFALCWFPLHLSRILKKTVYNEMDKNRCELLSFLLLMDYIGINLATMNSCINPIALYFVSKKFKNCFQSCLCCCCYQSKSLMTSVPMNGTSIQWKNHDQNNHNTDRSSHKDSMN
Protocol: as §1, §2, §3, §4, §5, §6

Row | Compound | Ki (human ETB receptor) [µM] | Ki (human ETA receptor) [µM]
1 | COC(c1ccccc1)(c1ccccc1)[C@H](Oc1nc(C)c(C)o1)C(=O)O [Compound I-4, (S)-2-(4,5-Dimethyloxazol-2-yloxy)-3-methoxy-3,3-diphenyl-propionic Acid] | 3.1 | 0.029
2 | COC(c1ccccc1)(c1ccccc1)[C@H](Oc1nc2c(s1)CCC2)C(=O)O [Compound I-5, (S)-2-(4,5-Cyclopentenothiazol-2-yloxy)-3-methoxy-3,3-diphenyl-propionic Acid] | > 0.7 | 0.05
3 | COC(c1ccccc1)(c1ccccc1)[C@H](Oc1nc2ccccc2s1)C(=O)O [Compound I-6, (S)-2-(Benzothiazol-2-yloxy)-3-methoxy-3,3-diphenylpropionic Acid] | > 7.1 | 0.9

Next, values leading:

Row | Ki (human ETB receptor) [µM] | Ki (human ETA receptor) [µM] | Compound
4 | 0.65 | 0.013 | COC(c1ccccc1)(c1ccccc1)[C@H](Oc1nc(C)c(C)s1)C(=O)O [Compound I-1, (S)-2-(4,5-Dimethylthiazol-2-yloxy)-3-methoxy-3,3-diphenyl-propionic Acid]
5 | 0.21 | 0.145 | COc1ccc(CCOC(c2ccccc2)(c2ccccc2)C(Oc2nc(C)c(C)s2)C(=O)O)cc1OC (stereo not drawn) [Compound I-13, 2-(4,5-Dimethylthiazol-2-yloxy)-3-(2-(3,4-dimethoxyphenyl)-ethoxy)-3,3-diphenylpropionic Acid]
6 | 0.485 | 0.215 | COc1ccc(CCOC(c2ccccc2)(c2ccccc2)C(Oc2nc(C)c(C)o2)C(=O)O)cc1OC (stereo not drawn) [Compound I-15, 2-(4,5-Dimethyloxazol-2-yloxy)-3-(2-(3,4-dimethoxyphenyl)-ethoxy)-3,3-diphenylpropionic Acid]
